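Assay format: 96-well plates, 48-hour exposure. TGI denotes the concentration required for complete inhibition of growth.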
Assays:
Assay in all cases: NCI-60 cell line screen, 48 h
[1] = system: MDA-N
[2] = system: NCI/ADR-RES ovarian
[3] = system: CCRF-CEM leukemia
[4] = system: NCI-H23 lung
[5] = system: SN12C renal
[6] = system: RXF 393 renal
[7] = system: UACC-257 melanoma
[8] = system: NCI-H460 lung
[9] = system: K-562 leukemia
[10] = system: HOP-62 NSCLC
[11] = system: DU-145 prostate
[12] = system: IGROV1 ovarian
[13] = system: OVCAR-8 ovarian
[14] = system: HCC-2998 colon
[15] = system: A498 renal
[16] = system: CAKI-1 renal
[17] = system: SF-268 CNS
[18] = system: LOX IMVI melanoma

Row | Structure (SMILES) | TGI [1] | TGI [2] | TGI [3] | TGI [4] | TGI [5] | TGI [6] | TGI [7] | TGI [8] | TGI [9] | TGI [10] | TGI [11] | TGI [12] | TGI [13] | TGI [14] | TGI [15] | TGI [16] | TGI [17] | TGI [18]
1 | CCNC1=C(NC(=O)c2ccccc2)C(=O)c2ccccc2C1=O | 24.1 µM | 39.7 µM | > 100 µM | > 100 µM | > 100 µM | 74.1 µM | 64.5 µM | > 100 µM | > 100 µM | > 100 µM | > 100 µM | > 100 µM | > 100 µM | > 100 µM | – | – | – | –
2 | Nc1cccc(OCC2CCCN3CCCCC23)c1 (stereo unspecified) | 30.8 µM | 38.3 µM | 34.4 µM | 34.3 µM | 33.6 µM | 42.7 µM | 34.3 µM | 36.3 µM | 76.1 µM | 36.1 µM | 32.6 µM | – | 34.4 µM | 30 µM | 28.2 µM | 35.2 µM | 36.2 µM | 31.4 µM
3 | O=[N+]([O-])c1cc(-[n+]2cc([O-])on2)ccc1Cl | 39.9 µM | 58.8 µM | 62.4 µM | 26.6 µM | 29.8 µM | 27.9 µM | 27.5 µM | > 100 µM | > 100 µM | 30.1 µM | 30.5 µM | 64.5 µM | 49.7 µM | 34.9 µM | – | 5.01 µM | 78.3 µM | 33.7 µM
4 | CC(=O)C1C(=O)C(=O)N(c2ccc([N+](=O)[O-])cc2)C1=O (stereo unspecified) | > 100 µM | > 100 µM | > 100 µM | > 100 µM | > 100 µM | > 100 µM | > 100 µM | > 100 µM | – | > 100 µM | > 100 µM | > 100 µM | > 100 µM | > 100 µM | – | > 100 µM | > 100 µM | > 100 µM
5 | CCOC(=O)C1C(c2ccc(OC)cc2)c2c([nH][nH]c2=O)CC1(C)O (stereo unspecified) | > 100 µM | > 100 µM | > 100 µM | > 100 µM | > 100 µM | – | > 100 µM | > 100 µM | – | > 100 µM | > 100 µM | > 100 µM | > 100 µM | > 100 µM | > 100 µM | > 100 µM | > 100 µM | > 100 µM
6 | COc1ccc(-c2csc(Cc3nc4c(Br)cc(Br)cc4c(=O)n3-c3ccc(OC)cc3)n2)cc1 | > 100 µM | > 100 µM | > 100 µM | > 100 µM | – | > 100 µM | > 100 µM | > 100 µM | – | > 100 µM | > 100 µM | > 100 µM | > 100 µM | > 100 µM | > 100 µM | > 100 µM | – | > 100 µM
7 | O=c1[nH][nH]c(=O)n1/N=C/c1ccccc1 | > 100 µM | > 100 µM | > 100 µM | > 100 µM | > 100 µM | – | > 100 µM | > 100 µM | > 100 µM | > 100 µM | > 100 µM | > 100 µM | > 100 µM | – | > 100 µM | > 100 µM | > 100 µM | > 100 µM
8 | COC(=O)c1ccc(C)cc1CC1Cc2cccc(C)c2C1=O (stereo unspecified) | 3.86 µM | 66.3 µM | 51.3 µM | > 100 µM | 78.2 µM | 30.2 µM | 47.9 µM | 22.7 µM | 9.79 µM | > 100 µM | > 100 µM | > 100 µM | 33.5 µM | 29.3 µM | – | > 100 µM | > 100 µM | 9.79 µM
9 | CCOC(=O)c1c(N2CCCC2)[nH]c(=O)c(C(c2ccc(Cl)c([N+](=O)[O-])c2)c2c(O)c(C(=O)OCC)c(N3CCCC3)[nH]c2=O)c1O | 79.6 µM | 73.4 µM | 79.3 µM | 48.9 µM | > 100 µM | 99.6 µM | > 100 µM | > 100 µM | > 100 µM | > 100 µM | > 100 µM | – | 33.5 µM | > 100 µM | > 100 µM | 60.6 µM | 55.2 µM | 49.4 µM
10 | O=C(COc1ccccc1)N(C(=O)N1CCN(c2ccccc2)CC1)S(=O)(=O)c1ccccc1 | > 100 µM | > 100 µM | 61.2 µM | > 100 µM | > 100 µM | – | > 100 µM | > 100 µM | > 100 µM | > 100 µM | > 100 µM | – | > 100 µM | > 100 µM | > 100 µM | > 100 µM | > 100 µM | > 100 µM
11 | C=CCN1C[C@H](C)N([C@H](c2ccc(C(=O)N(CC)CC)cc2)c2cccc(OC)c2)C[C@H]1C | > 100 µM | > 100 µM | – | > 100 µM | > 100 µM | – | 52.3 µM | – | – | > 100 µM | > 100 µM | > 100 µM | > 100 µM | – | > 100 µM | > 100 µM | > 100 µM | –
12 | CC(C)(C)OC(=O)[C@@H]1ON2O[C@H](OC3CCCC3(c3ccccc3)c3ccccc3)C[C@H]3OC(=O)[C@@H]1[C@H]32 (stereo partly specified) | > 100 µM | > 100 µM | > 100 µM | > 100 µM | > 100 µM | 92.1 µM | > 100 µM | > 100 µM | > 100 µM | > 100 µM | > 100 µM | > 100 µM | – | – | – | > 100 µM | > 100 µM | 96.6 µM
13 | COc1c(C(C)(C)C)cc(CC2C(=O)C=CC2=O)cc1C(C)(C)C | 39.6 µM | > 80.6 µM | 14.9 µM | 48.9 µM | > 73 µM | 30.4 µM | 32.4 µM | 41.2 µM | 14.1 µM | 36.9 µM | 15.5 µM | 29.2 µM | 66.9 µM | – | 32.9 µM | 30.5 µM | 40 µM | 40.2 µM
14 | CCOC(=O)OC1C(Br)C2CCC1(C)C2(C)C (stereo unspecified) | 28.5 µM | 32.7 µM | 17.3 µM | 31.9 µM | 28.1 µM | 25.1 µM | 29.5 µM | 16.6 µM | 20.1 µM | 31.2 µM | 33 µM | 32.8 µM | 31.7 µM | 25.1 µM | – | – | 29.6 µM | 18.9 µM

Source: PubChem BioAssay (NCI)
